From US10603322B2, “Therapeutic targeting of casein kinase 1δ in breast cancer” (The Scripps Research Institute, priority 2015, dated 2020)

Assays:
[1] = tested on: activated β-catenin signaling; assay: Wnt/β-catenin markers in MDA-MB-231 tumors of treated mice; assay type: in vivo; conditions: 20 mg/kg once daily i.p.
From the text: All animal studies are approved by the Scripps Florida IACUC. Stable pools of MDA-MB-231-Luc, MDA-MB-231, MDA-MB-468, SKBR3 or BT474 cells were established by injection of 2×10^6 cancer cells into the mammary fat pads of 6-week old female athymic nude mice (Charles River Laboratories). Establishment of BCM-4013 patient derived xenografts were as described (19). Briefly, fresh xenograft tumor fragments (˜1 mm^3) were transplanted into the cleared mammary fat pad of recipient SCID/Bg mice (Charles River Laboratories). Mice were treated with SR-3029 or vehicle (10:10:80, DMSO:Tween-80:Water) at 20 mg/kg daily by i.p. injection. Tumor volumes were measured as the indicated intervals using calipers or by luminescence imaging using the IVIS 100 imager (exposure time, 1-60 sec; binning 8; field of view 15-cm; f/stop 1; open filter) following subcutaneous injection of luciferin (15 mg/ml, Goldbio Technology). Average radiance (p/s/cm^2/sr) was determined from tumor region-of-interest (ROI) using Living-Image (Xenogen) analysis software. SDS-PAGE gel electrophoresis was performed using NuPAGE 4-12% Bis-Tris gels (Invitrogen) and transferred to PVDF membranes by semi-dry transfer using trans-blot transfer medium (Biorad). Membranes were blocked in Odyssey blocking buffer (LI-COR Biosciences) and incubated overnight at 4° C. with primary antibodies. After repeated washes with TBST (20 mM Tris, pH 7.6, 140 mM NaCl and 0.1% Tween-20) blots were incubated with the appropriate IRDye-conjugated secondary antibody (LI-COR Biosciences) and imaged using the LI-COR Odyssey. Bands were quantified using the Odyssey software (LI-COR Biosciences). The following antibodies were used in this study: CK1δ and Histone H4 (Abcam), CK1ε, c-Myc (9E10), Cyclin-D1 and β-actin (Santa Cruz), β-catenin (Cell Signaling), GAPDH (Millipore) and CD44 (R&D Systems). Total RNA was obtained using the RNeasy Plus Mini Kit (Qiagen) and 1-2 μg of RNA was reverse transcribed with Superscript III First Strand Synthesis System (Life Technologies). Quantitative PCR was performed using the Power SYBR Green PCR Master Mix (Life Technologies) and the ABI7900HT Fast Real-Time PCR System. Intron-spanning gene-specific primer pairs were designed using the Primer3 algorithm and relative expression values for each gene of interest obtained by normalizing to GAPDH mRNA expression using the ^ΔΔCt method.

[2] = tested on: β-catenin/TCF transcriptional activity; assay: TCF-dependent luciferase reporter assay in MDA-MB-231 cells; assay type: cell-based, human; conditions: increasing doses, 6 hr
Protocol: MDA-MB-231 or HEK293 cells stably expressing the TCF luciferase reporter 7TFP (39) were transfected with β-catenin-S33Y or empty vector (pcDNA). After 18 hr cells were seeded onto a 96-well plate at a density of 6000 cells/well. After 24 hr cells were treated with SR-3029 or vehicle and incubated for 6 hr prior to addition of 1 μg/ml recombinant human Wnt3a (R&D Systems) or PBS. After 3 hr, reporter assays were performed using BriteLite Plus (Perkin Elmer), which was added in equal volume directly to the media and luminescence read using a Spectramax plate reader (Molecular Devices).

[3] = tested on: β-catenin/TCF target genes; assay: Expression of Wnt/β-catenin and Notch pathway genes (immunoblot, qPCR); assay type: cell-based, human; conditions: 24 hr, 100 nM
Protocol: SDS-PAGE gel electrophoresis was performed using NuPAGE 4-12% Bis-Tris gels (Invitrogen) and transferred to PVDF membranes by semi-dry transfer using trans-blot transfer medium (Biorad). Membranes were blocked in Odyssey blocking buffer (LI-COR Biosciences) and incubated overnight at 4° C. with primary antibodies. After repeated washes with TBST (20 mM Tris, pH 7.6, 140 mM NaCl and 0.1% Tween-20) blots were incubated with the appropriate IRDye-conjugated secondary antibody (LI-COR Biosciences) and imaged using the LI-COR Odyssey. Bands were quantified using the Odyssey software (LI-COR Biosciences). The following antibodies were used in this study: CK1δ and Histone H4 (Abcam), CK1ε, c-Myc (9E10), Cyclin-D1 and β-actin (Santa Cruz), β-catenin (Cell Signaling), GAPDH (Millipore) and CD44 (R&D Systems).
Total RNA was obtained using the RNeasy Plus Mini Kit (Qiagen) and 1-2 μg of RNA was reverse transcribed with Superscript III First Strand Synthesis System (Life Technologies). Quantitative PCR was performed using the Power SYBR Green PCR Master Mix (Life Technologies) and the ABI7900HT Fast Real-Time PCR System. Intron-spanning gene-specific primer pairs were designed using the Primer3 algorithm and relative expression values for each gene of interest obtained by normalizing to GAPDH mRNA expression using the ^ΔΔCt method.

kinome = conditions: cited from earlier work
[4] = Tolerability of long-term daily dosing; assay type: in vivo, mice
From the text: (§1) All animal studies are approved by the Scripps Florida IACUC. Stable pools of MDA-MB-231-Luc, MDA-MB-231, MDA-MB-468, SKBR3 or BT474 cells were established by injection of 2×10^6 cancer cells into the mammary fat pads of 6-week old female athymic nude mice (Charles River Laboratories). Establishment of BCM-4013 patient derived xenografts were as described (19). Briefly, fresh xenograft tumor fragments (˜1 mm^3) were transplanted into the cleared mammary fat pad of recipient SCID/Bg mice (Charles River Laboratories). Mice were treated with SR-3029 or vehicle (10:10:80, DMSO:Tween-80:Water) at 20 mg/kg daily by i.p. injection. Tumor volumes were measured as the indicated intervals using calipers or by luminescence imaging using the IVIS 100 imager (exposure time, 1-60 sec; binning 8; field of view 15-cm; f/stop 1; open filter) following subcutaneous injection of luciferin (15 mg/ml, Goldbio Technology). Average radiance (p/s/cm^2/sr) was determined from tumor region-of-interest (ROI) using Living-Image (Xenogen) analysis software.
For apoptotic detection in cryosections tumors and small intestines were fixed in 10% buffered formalin for 2 hr, incubated in 20% sucrose overnight and embedded in OCT. Frozen sections ([…]) were mounted and stained using the ApopTag Red In Situ Kit according to the manufacturer instructions (CHEMICON). For H&E staining, tissues were fixed in 10% buffered formalin for 48 hr, transferred to 70% ethanol/PBS and embedded in paraffin. Staining was performed on […] sections following deparaffinization (AML Laboratories).

MDA-MB-231-luc tumors = assay: Orthotopic MDA-MB-231-luc tumor model, treatment from day 7; assay type: in vivo, nude mice; conditions: 20 mg/kg daily i.p.
From the text: as §1

Fc1cccc(-n2cnc3c(NCc4nc5ccc(F)c(F)c5[nH]4)nc(N4CCOCC4)nc32)c1 [SR-3029]
CCND1, WNT3, WNT9A and RARA mRNA transcripts in tumors ([1]; 7 days): decreases | SFRP1 transcripts in tumors ([1]; 7 days): marked increase | expression of nuclear β-catenin in tumors ([1]; 7 days): markedly reduced | CCND1 protein in tumors ([1]; day 7): down-regulation | endogenous β-catenin/TCF transcriptional activity [2]: markedly reduced | Notch pathway mRNAs (JAG1, NUMB, DTX) [3]: no effect | expression of endogenous β-catenin/TCF target genes (CCND1, MYC, CD44, WNT3, WNT9A) [3]: repressed | expression of the endogenous Wnt antagonist SFRP1 [3]: marked increase | off-target kinase affinity (kinome; CDK4, MYLK4 and FLT3, in addition to CK1δ and CK1ε): weaker affinity for only three kinases | fraction of the kinome inhibited (kinome): 1% | tolerability: body weight, blood chemistry and tissue integrity by histochemistry ([4]; long-term daily dosing (48 days), 20 mg/kg i.p.): well tolerated, with no overt toxicity | small intestine apoptosis, TUNEL staining ([4]; long-term treatment): failed to detect evidence of apoptosis | small intestine integrity, H&E staining ([4]; long-term treatment): no gross morphological defects | tumor growth (MDA-MB-231-luc tumors; single agent, start seven days after engraftment): markedly impaired tumor growth | recipients that developed tumors (MDA-MB-231-luc tumors; n=8 per cohort): 2
